Each structure is given as a SMILES string. Some results are limits rather than exact numbers.

In one experiment the target is human SSTR2 (Homo sapiens (Human), UniProt P30874). Put plainly: Human SSTR2 intracellular cAMP functional assay for agonists (HTRF). It is filed as cell-based.
human SSTR2, sequence (P30874 whole entry): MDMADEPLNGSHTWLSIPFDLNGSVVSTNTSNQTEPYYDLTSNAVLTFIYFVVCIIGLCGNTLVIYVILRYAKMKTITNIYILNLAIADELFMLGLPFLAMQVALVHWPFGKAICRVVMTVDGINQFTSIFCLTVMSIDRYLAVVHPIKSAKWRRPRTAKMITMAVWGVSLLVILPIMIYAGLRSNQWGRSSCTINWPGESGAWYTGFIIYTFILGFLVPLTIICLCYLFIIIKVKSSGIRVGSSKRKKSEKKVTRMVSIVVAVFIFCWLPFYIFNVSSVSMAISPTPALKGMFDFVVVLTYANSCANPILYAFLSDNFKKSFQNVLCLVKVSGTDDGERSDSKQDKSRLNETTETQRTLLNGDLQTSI
Settings: not given
In short, it runs like this: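 Cells bearing human SSTR2 exposed to compound for 20 minutes at 37 °C; after lysis, cAMP measured by time-resolved fluorescence (HTRF) and converted via a standard curve. EC50 calculated from cAMP versus compound concentration.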
With `CON=Cc1cc(-c2ccc3ncc(-c4cc(C)cc(F)c4)c(N4CCC(N)CC4)c3c2)ccc1O` [2-213, 4-[4-(4-aminopiperidin-1-yl)-3-(3-fluoro-5-methylphenyl)quinolin-6-yl]-2-[(methoxyimino)methyl]phenol], the EC50 lay in the range of 10 to 100 nM.

For the compound `CONC(=O)Nc1nccc(C)c1-c1ccc2ncc(-c3cc(C)cc(F)c3)c(N3CCC(N)CC3)c2c1` [2-215, 1-{3-[4-(4-aminopiperidin-1-yl)-3-(3-fluoro-5-methylphenyl)quinolin-6-yl]-4-methylpyridin-2-yl}-3-methoxyurea], the half-maximal effective concentration (EC50) was in the range of 10 to 100 nM.

The compound `CONC(=O)Nc1nc(C)ccc1-c1ccc2ncc(-c3cc(C)cc(F)c3)c(N3CCC(N)CC3)c2c1` [2-239, 1-{3-[4-(4-aminopiperidin-1-yl)-3-(3-fluoro-5-methylphenyl)quinolin-6-yl]-6-methylpyridin-2-yl}-3-methoxyurea] registered an EC50 of 10 to 100 nM.

Take `CONC(=O)Nc1ccc(-c2ccc3ncc(-c4cc(C)cc(F)c4)c(N4CCC(N)CC4)c3c2)cc1` [2-240, 1-{4-[4-(4-aminopiperidin-1-yl)-3-(3-fluoro-5-methylphenyl)quinolin-6-yl]phenyl}-3-methoxyurea]: the 50% effective concentration (EC50) was in the range of 10 to 100 nM.

The experiment is the same for the next values; noted with them: CHO-K1 cells stably expressing human SSTR2; NKH477-stimulated cAMP; read-out: EC50 (inhibition of cAMP activities via human SST2R).
Take `COCOc1c(C#N)cc(F)cc1-c1ccc2ncc(-c3cc(F)cc(F)c3)c(N3CCC(N)CC3)c2c1` [2-194, 3-[4-(4-aminopiperidin-1-yl)-3-(3,5-difluorophenyl)quinolin-6-yl]-5-fluoro-2-(methoxymethoxy)benzonitrile]: the EC50 is below 10 nM.

`NC1CCN(c2c(-c3cc(F)cc(F)c3)cnc3ccc(-c4ncccc4C=NO)cc23)CC1` [2-195, 1-[3-(3,5-difluorophenyl)-6-{3-[(hydroxyimino)methyl]pyridin-2-yl}quinolin-4-yl]piperidin-4-amine]: the EC50 was below 10 nM.

On to `NC1CCN(c2c(-c3cc(F)cc(F)c3)cnc3ccc(-c4cccnc4C=NO)cc23)CC1` [2-196, 1-[3-(3,5-difluorophenyl)-6-{2-[(hydroxyimino)methyl]pyridin-3-yl}quinolin-4-yl]piperidin-4-amine], for which the half-maximal effective concentration (EC50) was below 10 nM.

Take `COC(=O)Nc1c(F)cc(F)cc1-c1ccc2ncc(-c3cc(C)cc(F)c3)c(N3CCC(N)CC3)c2c1` [2-197, methyl N-{2-[4-(4-aminopiperidin-1-yl)-3-(3-fluoro-5-methylphenyl)quinolin-6-yl]-4,6-difluorophenyl}carbamate]: the 50% effective concentration (EC50) was below 10 nM.

As to `CON(C)C(=O)Nc1c(F)cc(F)cc1-c1ccc2ncc(-c3cc(C)cc(F)c3)c(N3CCC(N)CC3)c2c1` [2-198, 1-{2-[4-(4-aminopiperidin-1-yl)-3-(3-fluoro-5-methylphenyl)quinolin-6-yl]-4,6-difluorophenyl}-3-methoxy-3-methylurea], the concentration giving a half-maximal response (EC50) was below 10 nM.

As for `Cc1cc(F)cc(-c2cnc3ccc(-c4cc(F)cc(F)c4NC(=O)N(C)C)cc3c2N2CCC(N)CC2)c1` [2-199, 1-{2-[4-(4-aminopiperidin-1-yl)-3-(3-fluoro-5-methylphenyl)quinolin-6-yl]-4,6-difluorophenyl}-3,3-dimethylurea], the concentration giving a half-maximal response (EC50) is below 10 nM.

Regarding `NC1CCN(c2c(-c3cc(F)cc(F)c3)cnc3ccc(-c4cccc(C=NO)n4)cc23)CC1` [2-200, 1-[3-(3,5-difluorophenyl)-6-{6-[(hydroxyimino)methyl]pyridin-2-yl}quinolin-4-yl]piperidin-4-amine], the half-maximal effective concentration (EC50) was below 10 nM.

Turning to `Cc1ccc(F)c(C=NO)c1-c1ccc2ncc(-c3cc(F)cc(F)c3)c(N3CCC(N)CC3)c2c1` [2-202, 1-[3-(3,5-difluorophenyl)-6-{3-fluoro-2-[(hydroxyimino)methyl]-6-methylphenyl}quinolin-4-yl]piperidin-4-amine], the concentration giving a half-maximal response (EC50) is below 10 nM.

In the case of `NC1CCN(c2c(-c3cc(F)cc(F)c3)cnc3ccc(-c4ccnc(C=NO)c4)cc23)CC1` [2-203, 1-[3-(3,5-difluorophenyl)-6-{2-[(hydroxyimino)methyl]pyridin-4-yl}quinolin-4-yl]piperidin-4-amine], the EC50 is below 10 nM.

Take `COCCOc1c(C#N)cc(F)cc1-c1ccc2ncc(-c3cc(C)cc(F)c3)c(N3CCC(N)CC3)c2c1` [2-204, 3-[4-(4-aminopiperidin-1-yl)-3-(3-fluoro-5-methylphenyl)quinolin-6-yl]-5-fluoro-2-(2-methoxyethoxy)benzonitrile]: the EC50 is below 10 nM.

As to `COC(=O)Nc1c(C#N)cc(F)c(F)c1-c1ccc2ncc(-c3cc(C)cc(F)c3)c(N3CCC(N)CC3)c2c1` [2-205], the half-maximal effective concentration (EC50) is below 10 nM.

Turning to `CON(C)C(=O)Nc1c(C#N)cc(F)c(F)c1-c1ccc2ncc(-c3cc(C)cc(F)c3)c(N3CCC(N)CC3)c2c1` [2-206, 1-{2-[4-(4-aminopiperidin-1-yl)-3-(3-fluoro-5-methylphenyl)quinolin-6-yl]-6-cyano-3,4-difluorophenyl}-3-methoxy-3-methylurea], the 50% effective concentration (EC50) was below 10 nM.

With `COC(=O)Nc1c(F)cccc1-c1ccc2ncc(-c3cc(C)cc(F)c3)c(N3CCC(N)CC3)c2c1` [2-209, methyl N-{2-[4-(4-aminopiperidin-1-yl)-3-(3-fluoro-5-methylphenyl)quinolin-6-yl]-6-fluorophenyl}carbamate], the EC50 was below 10 nM.

Regarding `CON(C)C(=O)Nc1c(F)cccc1-c1ccc2ncc(-c3cc(C)cc(F)c3)c(N3CCC(N)CC3)c2c1` [2-210, 1-{2-[4-(4-aminopiperidin-1-yl)-3-(3-fluoro-5-methylphenyl)quinolin-6-yl]-6-fluorophenyl}-3-methoxy-3-methylurea], the EC50 is below 10 nM.

As to `Cc1cc(F)cc(-c2cnc3ccc(-c4cn(C)nc4N)cc3c2N2CCC(N)CC2)c1` [2-211, 1-[6-(3-amino-1-methyl-1H-pyrazol-4-yl)-3-(3-fluoro-5-methylphenyl)quinolin-4-yl]piperidin-4-amine], the 50% effective concentration (EC50) was below 10 nM.

As to `CONC(=O)Nc1nn(C)cc1-c1ccc2ncc(-c3cc(C)cc(F)c3)c(N3CCC(N)CC3)c2c1` [2-212, 1-{4-[4-(4-aminopiperidin-1-yl)-3-(3-fluoro-5-methylphenyl)quinolin-6-yl]-1-methyl-1H-pyrazol-3-yl}-3-methoxyurea], the 50% effective concentration (EC50) is below 10 nM.

In the case of `COC(=O)Nc1nn(C)cc1-c1ccc2ncc(-c3cc(C)cc(F)c3)c(N3CCC(N)CC3)c2c1` [2-214, methyl N-{4-[4-(4-aminopiperidin-1-yl)-3-(3-fluoro-5-methylphenyl)quinolin-6-yl]-1-methyl-1H-pyrazol-3-yl}carbamate], the EC50 is below 10 nM.

On to `Cc1cc(F)cc(-c2cnc3ccc(-c4cc(F)cc(F)c4NC(=O)NOC(C)C)cc3c2N2CCC(N)CC2)c1` [2-216, 1-{2-[4-(4-aminopiperidin-1-yl)-3-(3-fluoro-5-methylphenyl)quinolin-6-yl]-4,6-difluorophenyl}-3-(propan-2-yloxy)urea], for which the 50% effective concentration (EC50) is below 10 nM.

In the case of `CONC(=O)Nc1ccc(C#N)cc1-c1ccc2ncc(-c3cc(C)cc(F)c3)c(N3CCC(N)CC3)c2c1` [2-222], the EC50 was below 10 nM.

`CONC(=O)Nc1cc(F)cc(-c2ccc3ncc(-c4cc(C)cc(F)c4)c(N4CCC(N)CC4)c3c2)c1` [2-223, 1-{3-[4-(4-aminopiperidin-1-yl)-3-(3-fluoro-5-methylphenyl)quinolin-6-yl]-5-fluorophenyl}-3-methoxyurea]: the half-maximal effective concentration (EC50) is below 10 nM.

In the case of `CONC(=O)Nc1ncccc1-c1ccc2ncc(-c3cc(C)cc(F)c3)c(N3CCC(N)CC3)c2c1` [2-226, 1-{3-[4-(4-aminopiperidin-1-yl)-3-(3-fluoro-5-methylphenyl)quinolin-6-yl]pyridin-2-yl}-3-methoxyurea], the concentration giving a half-maximal response (EC50) was below 10 nM.

As to `CCONC(=O)Nc1c(F)cc(F)cc1-c1ccc2ncc(-c3cc(C)cc(F)c3)c(N3CCC(N)CC3)c2c1` [2-228, 1-{2-[4-(4-aminopiperidin-1-yl)-3-(3-fluoro-5-methylphenyl)quinolin-6-yl]-4,6-difluorophenyl}-3-ethoxyurea], the EC50 is below 10 nM.

As to `COCCNc1nn(C)cc1-c1ccc2ncc(-c3cc(C)cc(F)c3)c(N3CCC(N)CC3)c2c1` [2-229, 1-[3-(3-fluoro-5-methylphenyl)-6-{3-[(2-methoxyethyl)amino]-1-methyl-1H-pyrazol-4-yl}quinolin-4-yl]piperidin-4-amine], the EC50 was below 10 nM.

Take `COCC(=O)Nc1c(F)cc(F)cc1-c1ccc2ncc(-c3cc(C)cc(F)c3)c(N3CCC(N)CC3)c2c1` [2-230, N-{2-[4-(4-aminopiperidin-1-yl)-3-(3-fluoro-5-methylphenyl)quinolin-6-yl]-4,6-difluorophenyl}-2-methoxyacetamide]: the EC50 was below 10 nM.

In the case of `N#CCOc1c(C#N)cccc1-c1ccc2ncc(-c3cc(F)cc(F)c3)c(N3CCC(N)CC3)c2c1` [2-231, 3-[4-(4-aminopiperidin-1-yl)-3-(3,5-difluorophenyl)quinolin-6-yl]-2-(cyanomethoxy)benzonitrile], the EC50 is below 10 nM.

In the case of `Cc1cc(F)cc(-c2cnc3ccc(-c4cc(F)cc(F)c4NC(=O)NOCC(F)(F)F)cc3c2N2CCC(N)CC2)c1` [2-233, 1-{2-[4-(4-aminopiperidin-1-yl)-3-(3-fluoro-5-methylphenyl)quinolin-6-yl]-4,6-difluorophenyl}-3-(2,2,2-trifluoroethoxy)urea], the EC50 is below 10 nM.

In the case of `COCCNc1ncc(F)cc1-c1ccc2ncc(-c3cc(C)cc(F)c3)c(N3CCC(N)CC3)c2c1` [2-234, 3-[4-(4-aminopiperidin-1-yl)-3-(3-fluoro-5-methylphenyl)quinolin-6-yl]-5-fluoro-N-(2-methoxyethyl)pyridin-2-amine], the EC50 was below 10 nM.

Regarding `CONC(=O)Nc1c(F)cc(C#N)cc1-c1ccc2ncc(-c3cc(C)cc(F)c3)c(N3CCC(N)CC3)c2c1` [2-237, 1-{2-[4-(4-aminopiperidin-1-yl)-3-(3-fluoro-5-methylphenyl)quinolin-6-yl]-4-cyano-6-fluorophenyl}-3-methoxyurea], the concentration for a half-maximal effect (EC50) was below 10 nM.

In the case of `N#Cc1ccc(NC(=O)NOCC(F)(F)F)c(-c2ccc3ncc(-c4cc(F)cc(F)c4)c(N4CCC(N)CC4)c3c2)c1` [2-238, 1-{2-[4-(4-aminopiperidin-1-yl)-3-(3,5-difluorophenyl)quinolin-6-yl]-4-cyanophenyl}-3-(2,2,2-trifluoroethoxy)urea], the concentration giving a half-maximal response (EC50) is below 10 nM.

The values above are taken from patent publication US10351547B2, “Somatostatin modulators and uses thereof” (priority 2016, dated 2019).
